Consider 13 compounds from ChEMBL document CHEMBL4014283, “Structural insights of SmKDAC8 inhibitors: Targeting Schistosoma epigenetics through a combined structure-based 3D QSAR, in vitro and synthesis strategy” (Bioorg Med Chem, 2017).

Series [1] has as its target KDAC3/NCOR2 (histone deacetylase 3/nuclear receptor corepressor 2 complex) (Homo sapiens, UniProt O15379). The experiment in a line: (§1) Inhibition of full length human C-terminal His-tagged KDAC3/N-terminal GST-tagged human NCOR2 (395 to 489 residues) expressed in baculovirus expression system at 30 uM using FITC-p53 acetylated peptide as substrate after 60 mins by microfluidic assay. Particulars: probe FITC-p53 acetylated peptide.

For series [2], the target named is T1, KDAC6 (protein deacetylase HDAC6) (Homo sapiens, UniProt Q9UBN7).
T1 sequence (Q9UBN7 whole entry): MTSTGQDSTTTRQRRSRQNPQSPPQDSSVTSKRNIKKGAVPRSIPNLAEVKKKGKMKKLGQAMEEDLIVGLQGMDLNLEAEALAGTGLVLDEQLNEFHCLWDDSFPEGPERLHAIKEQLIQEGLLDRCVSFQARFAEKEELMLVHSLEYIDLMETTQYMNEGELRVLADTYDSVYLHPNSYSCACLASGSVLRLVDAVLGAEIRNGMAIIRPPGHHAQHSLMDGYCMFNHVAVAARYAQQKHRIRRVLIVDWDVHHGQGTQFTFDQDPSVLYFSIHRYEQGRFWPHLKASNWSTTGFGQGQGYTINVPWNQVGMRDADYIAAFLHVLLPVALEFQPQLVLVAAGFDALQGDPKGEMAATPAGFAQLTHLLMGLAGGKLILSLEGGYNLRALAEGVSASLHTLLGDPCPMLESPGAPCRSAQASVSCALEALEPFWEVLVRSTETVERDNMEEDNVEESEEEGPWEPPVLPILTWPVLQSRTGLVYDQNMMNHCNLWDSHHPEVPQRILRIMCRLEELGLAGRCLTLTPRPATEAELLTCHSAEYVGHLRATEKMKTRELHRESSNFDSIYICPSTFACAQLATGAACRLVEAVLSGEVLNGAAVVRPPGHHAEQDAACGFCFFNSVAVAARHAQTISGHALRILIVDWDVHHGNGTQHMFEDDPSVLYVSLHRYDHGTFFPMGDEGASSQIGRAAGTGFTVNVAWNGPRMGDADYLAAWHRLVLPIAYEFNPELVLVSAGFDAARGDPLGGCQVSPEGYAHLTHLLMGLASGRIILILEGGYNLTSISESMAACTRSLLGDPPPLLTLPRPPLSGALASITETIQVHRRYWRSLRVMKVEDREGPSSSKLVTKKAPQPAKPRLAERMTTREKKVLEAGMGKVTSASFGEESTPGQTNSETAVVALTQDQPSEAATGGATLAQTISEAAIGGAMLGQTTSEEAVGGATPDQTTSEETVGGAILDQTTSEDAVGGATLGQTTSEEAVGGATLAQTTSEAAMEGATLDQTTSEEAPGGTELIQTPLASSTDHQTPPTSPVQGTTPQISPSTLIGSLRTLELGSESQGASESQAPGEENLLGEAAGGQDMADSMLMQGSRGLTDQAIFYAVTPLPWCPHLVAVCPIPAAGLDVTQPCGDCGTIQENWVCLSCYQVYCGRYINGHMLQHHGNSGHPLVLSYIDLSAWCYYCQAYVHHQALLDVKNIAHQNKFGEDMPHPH
Kind of series: (§2) Inhibition of human KDAC6 expressed in baculovirus expression system at 30 uM using FITC-Histone 4 acetylated peptide as substrate after 60 mins by microfluidic assay. To be noted: probe FITC-Histone 4 acetylated peptide.

In series [3] the target is T2, KDAC8 (histone deacetylase 8) (Homo sapiens, UniProt Q9BY41).
T2 sequence (Q9BY41 whole entry): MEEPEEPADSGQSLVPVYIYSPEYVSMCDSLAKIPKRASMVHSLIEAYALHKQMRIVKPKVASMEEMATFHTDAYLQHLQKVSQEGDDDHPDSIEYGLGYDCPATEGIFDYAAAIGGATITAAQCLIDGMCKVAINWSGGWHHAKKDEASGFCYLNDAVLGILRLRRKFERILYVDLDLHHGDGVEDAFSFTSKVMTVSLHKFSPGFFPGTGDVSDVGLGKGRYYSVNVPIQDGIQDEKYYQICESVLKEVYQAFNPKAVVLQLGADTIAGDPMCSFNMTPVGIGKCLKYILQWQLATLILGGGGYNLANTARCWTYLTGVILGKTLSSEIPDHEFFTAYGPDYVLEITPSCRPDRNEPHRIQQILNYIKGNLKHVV
The experiment in a line: (§3) Inhibition of full length human C-terminal His-tagged KDAC8 expressed in baculovirus expression system at 30 uM using (FAM)-labeled peptide as substrate after 60 mins by microfluidic assay relative to control. Particulars: probe (FAM)-labeled peptide.

Series [4] concerns the target T3, Histone deacetylase 8 (Schistosoma mansoni) (UniProt A5H660).
T3 sequence (whole entry): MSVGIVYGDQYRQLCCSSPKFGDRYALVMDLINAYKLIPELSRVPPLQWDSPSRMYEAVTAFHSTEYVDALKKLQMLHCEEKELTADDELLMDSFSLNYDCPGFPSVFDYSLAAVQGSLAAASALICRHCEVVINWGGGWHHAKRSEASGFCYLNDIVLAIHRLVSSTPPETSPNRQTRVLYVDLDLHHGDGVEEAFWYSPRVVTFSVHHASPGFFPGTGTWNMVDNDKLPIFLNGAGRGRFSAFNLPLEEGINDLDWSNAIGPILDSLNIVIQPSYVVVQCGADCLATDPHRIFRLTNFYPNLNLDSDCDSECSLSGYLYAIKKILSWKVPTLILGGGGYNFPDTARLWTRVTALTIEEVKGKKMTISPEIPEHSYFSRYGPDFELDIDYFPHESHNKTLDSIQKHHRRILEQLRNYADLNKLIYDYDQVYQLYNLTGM
Kind of series: Inhibition of Schistosoma mansoni KDAC8 at 30 uM using (FAM)-labeled peptide as substrate after 60 mins by microfluidic assay.

The target of series [5] is Histone deacetylase 1 (Homo sapiens, UniProt Q13547). Kind of series: Inhibition of full length human C-terminal FLAG/His-tagged KDAC1 expressed in baculovirus expression system at 30 uM using substrate A after 60 mins by microfluidic assay relative to control. Particulars: 1 h, 30 µM.
Series [6] addresses Histone deacetylase 3/Nuclear receptor corepressor 2 (HDAC3/NCoR2) (Homo sapiens, UniProt O15379+Q9Y618). The description is as §1. To be noted: 1 h, 30 µM.
The target in series [7] is T4, Protein deacetylase HDAC6 (Homo sapiens, UniProt Q9UBN7).
T4 sequence (Q9UBN7 whole entry): T1 sequence (Q9UBN7 whole entry)
The series is described as §2. To be noted: 1 h, 30 µM.

Series [8] concerns the target T5, Histone deacetylase 8 (Homo sapiens, UniProt Q9BY41).
T5 sequence (Q9BY41 whole entry): T2 sequence (Q9BY41 whole entry)
Described as §3. To be noted: 1 h, 30 µM.

The structures appear in SMILES notation. Activity calls are given as the source filed them. The calls are words filed in the database; no cut-off is given here.

Chain of Histone deacetylase 1 (Q13547 whole entry): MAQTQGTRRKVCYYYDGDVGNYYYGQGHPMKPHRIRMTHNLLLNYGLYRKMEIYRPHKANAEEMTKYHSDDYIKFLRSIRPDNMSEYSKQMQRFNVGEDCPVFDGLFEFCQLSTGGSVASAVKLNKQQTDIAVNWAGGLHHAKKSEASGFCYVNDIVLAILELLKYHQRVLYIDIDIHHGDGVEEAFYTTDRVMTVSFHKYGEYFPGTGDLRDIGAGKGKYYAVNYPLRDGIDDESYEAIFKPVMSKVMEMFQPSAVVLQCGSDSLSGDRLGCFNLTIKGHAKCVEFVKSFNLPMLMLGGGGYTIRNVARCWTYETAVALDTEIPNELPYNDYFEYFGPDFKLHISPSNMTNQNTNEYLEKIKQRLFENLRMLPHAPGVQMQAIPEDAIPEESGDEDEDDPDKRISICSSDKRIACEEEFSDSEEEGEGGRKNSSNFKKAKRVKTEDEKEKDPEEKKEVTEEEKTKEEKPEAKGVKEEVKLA
Chain of KDAC3/NCOR2 (histone deacetylase 3/nuclear receptor corepressor 2 complex) (O15379 whole entry, the tested form may be a part): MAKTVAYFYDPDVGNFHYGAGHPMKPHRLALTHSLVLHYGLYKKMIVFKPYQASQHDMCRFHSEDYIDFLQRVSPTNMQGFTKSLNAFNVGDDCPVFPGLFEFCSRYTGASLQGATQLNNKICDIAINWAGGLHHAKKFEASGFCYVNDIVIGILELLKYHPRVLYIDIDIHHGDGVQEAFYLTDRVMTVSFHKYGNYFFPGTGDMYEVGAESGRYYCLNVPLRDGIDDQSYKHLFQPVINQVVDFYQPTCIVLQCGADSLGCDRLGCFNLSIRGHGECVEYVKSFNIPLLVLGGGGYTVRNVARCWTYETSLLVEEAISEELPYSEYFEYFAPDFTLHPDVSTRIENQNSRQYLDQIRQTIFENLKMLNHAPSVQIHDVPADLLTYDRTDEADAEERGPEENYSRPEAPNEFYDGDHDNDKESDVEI
Chain of KDAC3/NCOR2 (histone deacetylase 3/nuclear receptor corepressor 2 complex) (Q9Y618 whole entry, further chain, the tested form may be a part): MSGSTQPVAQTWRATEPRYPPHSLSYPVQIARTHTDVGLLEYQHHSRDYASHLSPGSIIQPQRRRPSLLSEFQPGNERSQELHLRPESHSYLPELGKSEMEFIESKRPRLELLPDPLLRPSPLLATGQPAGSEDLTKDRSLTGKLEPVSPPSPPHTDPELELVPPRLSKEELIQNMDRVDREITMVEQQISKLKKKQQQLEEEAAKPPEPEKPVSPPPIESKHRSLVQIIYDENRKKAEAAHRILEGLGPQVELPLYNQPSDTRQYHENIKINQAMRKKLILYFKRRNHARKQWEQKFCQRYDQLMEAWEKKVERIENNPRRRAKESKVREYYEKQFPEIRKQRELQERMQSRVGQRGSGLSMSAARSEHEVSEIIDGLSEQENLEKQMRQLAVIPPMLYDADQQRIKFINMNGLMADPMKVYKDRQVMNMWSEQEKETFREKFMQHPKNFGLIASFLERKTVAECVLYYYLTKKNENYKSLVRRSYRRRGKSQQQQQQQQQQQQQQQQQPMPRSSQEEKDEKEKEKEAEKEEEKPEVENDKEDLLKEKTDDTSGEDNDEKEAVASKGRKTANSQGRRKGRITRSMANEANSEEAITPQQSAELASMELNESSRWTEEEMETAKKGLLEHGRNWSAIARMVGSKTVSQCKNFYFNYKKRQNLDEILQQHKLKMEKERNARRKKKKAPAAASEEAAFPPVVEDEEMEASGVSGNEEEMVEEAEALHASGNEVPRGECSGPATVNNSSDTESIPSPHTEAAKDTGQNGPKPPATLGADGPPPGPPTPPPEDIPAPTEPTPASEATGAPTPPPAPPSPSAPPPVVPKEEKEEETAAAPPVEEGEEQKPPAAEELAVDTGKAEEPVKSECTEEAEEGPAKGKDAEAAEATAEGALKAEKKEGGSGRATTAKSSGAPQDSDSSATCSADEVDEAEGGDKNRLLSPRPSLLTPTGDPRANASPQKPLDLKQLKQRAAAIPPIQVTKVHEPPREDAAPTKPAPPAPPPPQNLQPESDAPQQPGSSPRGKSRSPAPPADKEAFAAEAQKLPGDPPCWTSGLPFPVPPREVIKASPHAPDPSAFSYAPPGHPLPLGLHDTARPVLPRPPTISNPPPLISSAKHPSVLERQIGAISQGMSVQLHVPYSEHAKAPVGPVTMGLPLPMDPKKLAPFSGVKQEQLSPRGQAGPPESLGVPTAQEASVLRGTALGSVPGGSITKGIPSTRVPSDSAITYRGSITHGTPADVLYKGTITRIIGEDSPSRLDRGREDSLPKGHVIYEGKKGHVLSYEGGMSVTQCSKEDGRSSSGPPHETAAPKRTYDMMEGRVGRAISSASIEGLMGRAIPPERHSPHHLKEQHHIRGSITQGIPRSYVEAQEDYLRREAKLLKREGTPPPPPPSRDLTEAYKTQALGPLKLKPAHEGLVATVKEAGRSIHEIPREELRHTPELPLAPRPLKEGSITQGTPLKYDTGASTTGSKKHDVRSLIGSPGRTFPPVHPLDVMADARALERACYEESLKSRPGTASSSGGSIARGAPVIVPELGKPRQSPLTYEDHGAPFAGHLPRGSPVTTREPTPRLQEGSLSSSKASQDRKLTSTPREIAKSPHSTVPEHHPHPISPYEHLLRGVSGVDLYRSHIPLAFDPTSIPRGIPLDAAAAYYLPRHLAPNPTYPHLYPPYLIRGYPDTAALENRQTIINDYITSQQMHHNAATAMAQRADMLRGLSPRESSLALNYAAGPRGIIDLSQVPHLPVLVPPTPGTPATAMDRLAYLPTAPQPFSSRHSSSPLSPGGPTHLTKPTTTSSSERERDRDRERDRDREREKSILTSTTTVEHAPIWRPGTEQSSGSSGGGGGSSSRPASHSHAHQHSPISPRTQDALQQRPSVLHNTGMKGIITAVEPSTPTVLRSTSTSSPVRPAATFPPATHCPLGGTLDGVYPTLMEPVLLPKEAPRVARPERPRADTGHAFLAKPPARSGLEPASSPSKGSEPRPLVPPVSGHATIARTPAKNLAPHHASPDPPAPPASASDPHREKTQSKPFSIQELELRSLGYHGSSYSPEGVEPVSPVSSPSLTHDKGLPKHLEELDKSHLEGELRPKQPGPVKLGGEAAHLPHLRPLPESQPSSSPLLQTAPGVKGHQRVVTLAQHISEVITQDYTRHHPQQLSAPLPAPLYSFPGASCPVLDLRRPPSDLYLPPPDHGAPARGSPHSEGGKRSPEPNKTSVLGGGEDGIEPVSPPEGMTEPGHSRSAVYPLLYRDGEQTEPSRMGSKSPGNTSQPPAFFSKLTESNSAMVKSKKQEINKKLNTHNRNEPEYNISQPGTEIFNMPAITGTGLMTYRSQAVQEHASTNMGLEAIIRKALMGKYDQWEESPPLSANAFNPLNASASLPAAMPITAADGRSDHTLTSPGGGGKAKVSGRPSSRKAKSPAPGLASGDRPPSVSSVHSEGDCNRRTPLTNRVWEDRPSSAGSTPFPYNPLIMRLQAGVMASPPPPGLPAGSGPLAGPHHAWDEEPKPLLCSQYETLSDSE
Chain of Histone deacetylase 3/Nuclear receptor corepressor 2 (HDAC3/NCoR2) (O15379 whole entry): as the sequence (O15379 whole entry, the tested form may be a part) above
Chain of Histone deacetylase 3/Nuclear receptor corepressor 2 (HDAC3/NCoR2) (Q9Y618 whole entry): as the sequence (Q9Y618 whole entry, further chain, the tested form may be a part) above

`Nc1cc(Cl)c(Cl)cc1S(=O)(=O)NO`: the inhibition at 1 h, 30 µM turned out to be 6.7% in series [1], 3.7% in series [2] and 10.4% in series [3]. In addition, the inhibition in series [4] worked out at 8.43%. In addition, the “inhibition (INH)” value in series [5] was “Not Active”.

As for `Cc1cc(C)n(C(=N)NC(=O)c2ccc([N+](=O)[O-])cc2)n1`, the “inhibition (INH)” value in series [6], in series [7] and in series [5] was “Not Active” throughout. Moreover, the inhibition at 1 h, 30 µM in series [3] was determined as 4%. Moreover, the inhibition in series [4] was found to be 2%.

For `COC(=O)CC1(C(=O)OC)Nc2cc(Cl)c(Cl)cc2S(=O)(=O)N1` (stereo not given), the values for the inhibition at 1 h, 30 µM in series [1], in series [2] and in series [3] were 6%, 3% and 17%, respectively. Further, the inhibition in series [4] stood at 37%. For the same compound, in series [5], the “inhibition (INH)” value is recorded as “Not Active”.

On to `O=[N+]([O-])c1c(N2CCN(CCO)CC2)nc2ccccn12`, for which the “inhibition (INH)” value in series [6] and in series [5] was “Not Active” throughout. For the same compound, the figures for the inhibition at 1 h, 30 µM in series [2] and in series [3] were 1% and 31%, respectively. The inhibition in series [4] was 2%.

Regarding `Nc1ccccc1SC1CC(=O)N(c2ccccc2Cl)C1=O` (stereo not given), the “inhibition (INH)” value in series [6], in series [8] and in series [5] was “Not Active” throughout. In addition, the inhibition at 1 h, 30 µM in series [2] worked out at 1%. Also, the inhibition in series [4] amounted to 1%.

Take `COc1ccc([N+](=O)[O-])cc1NS(=O)(=O)c1ccc(C)cc1`: the inhibition at 1 h, 30 µM was determined as 9% in series [1], 7% in series [2] and 24% in series [3]. The compound also had an inhibition in series [4] of 13%. Besides, in series [5], the “inhibition (INH)” value is on record as “Not Active”.

Consider `CSC1=NC=C(C#N)C2=NC(c3ccc(Cl)cc3)NN12` (stereo not given), for which the inhibition at 1 h, 30 µM in series [1] turned out to be 8%; in series [2], 3%. For the same compound, the “inhibition (INH)” value in series [8] and in series [5] was “Not Active” in each case. In series [4], the inhibition result was “inactive”.

As to `CSc1nc(O)nnc1Sc1ccccc1`, the inhibition at 1 h, 30 µM in series [1] is 24%; in series [2], 20%. Moreover, the “inhibition (INH)” value in series [8] and in series [5] was “Not Active” in each case. The inhibition result in series [4] was “inactive”.

`O=C1Nc2cc(Cl)c(Cl)cc2S(=O)(=O)N1O`: the inhibition at 1 h, 30 µM in series [1] was 0.8%; in series [2], 12.3%; in series [3] it was 23.5%. Besides, in series [4], the inhibition result is “inactive”. In addition, in series [5], the “inhibition (INH)” value is recorded as “Not Active”.

With `CCOC(=O)CSc1nc2nc(Cl)c(Cl)[nH]c-2n1`, the inhibition at 1 h, 30 µM was 9% in series [1] and 21% in series [2]. Moreover, the “inhibition (INH)” value in series [8] and in series [5] was “Not Active” each time. Besides, in series [4], the inhibition entry was “inactive”.

Regarding `CCOC(=O)Nc1ccc2nc(N3CCCCCC3)sc2c1`, the “inhibition (INH)” value in series [6], in series [7] and in series [5] was “Not Active” each time. This compound also had an inhibition at 1 h, 30 µM in series [3] of 6%. The compound also returned an inhibition in series [4] of 5%.

`CC1(C)[C@H]2CC[C@H](CNC(=N)CSS(=O)(=O)O)[C@@H]1C2`: the “inhibition (INH)” value in series [6], in series [8] and in series [5] was “Not Active” in each case. Also, the inhibition at 1 h, 30 µM in series [2] came to 9%. Further, the inhibition result in series [4] was “inactive”.

In the case of `O=C1CSC(=S)N1/N=C/c1c[nH]c2ccc(Br)cc12`, the inhibition at 1 h, 30 µM in series [1] amounted to 10%; in series [2], 18%. Also, the “inhibition (INH)” value in series [8] and in series [5] was “Not Active” in each case. Moreover, in series [4], the inhibition entry is “inactive”.

By inhibition is commonly meant the percentage by which the read-out fell short of the control.
